Assay results as given in ChEMBL document CHEMBL1157539, “Thousands of chemical starting points for antimalarial lead identification” (Nature, 2010).

Tested on: Plasmodium falciparum
Test: GSK_TCMDC: Inhibition of Plasmodium falciparum 3D7 in whole erythrocytes, using parasite LDH activity as an index of growth.
Assay type: functional, organism-based

COc1ccc2nccc([C@@H](O)CN3CCC(NCc4ccc5c(c4)NC(=O)C(C)(C)O5)CC3)c2c1
XC50 (Plasmodium falciparum, 3D7): 402 nM

CC(=O)Nc1ccc(C(=O)Nc2cccc(-c3ccc(-c4nc5cccc(C)c5[nH]4)cc3)c2)cn1
XC50 (Plasmodium falciparum, 3D7): 191 nM

FC(F)(F)c1ccc(CNCC2CCN(Cc3ccc4c(c3)OCO4)CC2)cc1
XC50 (Plasmodium falciparum, 3D7): 1360 nM

c1ccc(CNCc2ccc(-c3ccc(-c4nc5ccccc5[nH]4)cc3)cc2)cc1
XC50 (Plasmodium falciparum, 3D7): 338 nM

O=C(Nc1ccc(Cl)cc1)c1ccc(S(=O)(=O)NCC2CCN(CC3CCCCC3)CC2)cc1
XC50 (Plasmodium falciparum, 3D7): 857 nM

CCc1cn(C)c2c(N3CCCC3=O)cc(C(=O)N[C@@H](Cc3ccccc3)[C@H](O)CNC(C)(C)CCCC(C)C)cc12
XC50 (Plasmodium falciparum, 3D7): 487 nM

COc1ccc(-c2cccc(NC(=O)c3ccc(C#N)cc3)c2)cc1CN(C)CCN(C)C
XC50 (Plasmodium falciparum, 3D7): 74.7 nM

O=C(/C=C/c1ccc(Cl)c(Cl)c1)NCCCCCN1CCCN(C(=O)Nc2ccc(Cl)cc2)CC1
XC50 (Plasmodium falciparum, 3D7): 735 nM

CCC1(CC)NC(N)=NC(=N)N1OCc1ccc(Cl)c(Cl)c1
XC50 (Plasmodium falciparum, 3D7): 58.5 nM

CCOc1ccccc1C1CCN(CCCCNC(=O)c2ccc(NC(=O)c3ccc(Cl)cc3)cc2)CC1
XC50 (Plasmodium falciparum, 3D7): 846 nM

O=C(Nc1cccc(-c2nc3ccccc3[nH]2)c1)c1ccc(-c2cccc([N+](=O)[O-])c2)o1
XC50 (Plasmodium falciparum, 3D7): 151 nM

CC(=O)Nc1ccc(Nc2cc(C)nc(Nc3ccc(NC(C)=O)cc3)n2)cc1
XC50 (Plasmodium falciparum, 3D7): 894 nM

Cc1cc(-c2cccc(CNCc3ccccc3)c2)ccc1S(=O)(=O)NCCN1CCCC1
XC50 (Plasmodium falciparum, 3D7): 732 nM

Cc1cccn2c(=O)c3cc(C(=O)NC(C)c4ccccc4)c(=N)n(CCc4ccccc4)c3nc12 (centres undefined)
XC50 (Plasmodium falciparum, 3D7): 554 nM

COc1ccc(C[C@@H](C)NC[C@H](O)c2cccc(Cl)c2)cc1F
XC50: 992 nM

CC(=O)Nc1cccc(C(=O)Nc2ccc(-c3cccc(-c4nc5cc(C(F)(F)F)ccc5[nH]4)c3)cc2)c1
XC50 (Plasmodium falciparum, 3D7): 148 nM

CN1CCCC(CN2CCN(Cc3cccc(-c4csc(-c5nc6ccccc6[nH]5)c4)c3)CC2)C1 (centres undefined)
XC50 (Plasmodium falciparum, 3D7): 414 nM

CNCCNCc1ccc(-c2ccc(-c3nc4ccccc4[nH]3)s2)cc1
XC50 (Plasmodium falciparum, 3D7): 865 nM

CS(=O)(=O)CCNCc1nc(-c2ccc3c(Nc4ccc(F)c(O)c4)ccnc3c2)cs1
XC50 (Plasmodium falciparum, 3D7): 820 nM

COc1ccccc1CNC(=O)c1cc(C2CC2)nc2c1cnn2C(C)C
XC50 (Plasmodium falciparum, 3D7): 1020 nM

Cc1cccc2nc(-c3cccc(-c4cccc(NC(=O)Nc5cccc(C#N)c5)c4)c3)[nH]c12
XC50 (Plasmodium falciparum, 3D7): 104 nM

CS(=O)(=O)N1CC2(CCN(CCC(NC(=O)NCc3ccccc3Cl)c3ccc(Cl)c(Cl)c3)CC2)c2ccccc21 (centres undefined)
XC50 (Plasmodium falciparum, 3D7): 1110 nM

COc1ccc(NC(=O)Nc2ccc(-c3ccncc3)c(C(F)(F)F)c2)cc1N1CCN(C)CC1
XC50 (Plasmodium falciparum, 3D7): 763 nM

CC1(C)N=C(N)N=C(NOCc2ccc(Cl)c(Cl)c2)N1
XC50 (Plasmodium falciparum, 3D7): 228 nM

O=C(c1ccc(Cl)cc1)N1CCOC(CCN2CCC(c3ccccc3)CC2)(c2ccc(Cl)c(Cl)c2)C1 (centres undefined)
XC50 (Plasmodium falciparum, 3D7): 238 nM

NCC1CCCN1Cc1ccc(-c2cccc(-c3nc4cc(C(F)(F)F)ccc4[nH]3)c2)cc1 (centres undefined)
XC50 (Plasmodium falciparum, 3D7): 833 nM

CCCNCc1ccc(-c2ccc(CN(CCOC)C(=O)c3cnc(C)cn3)cc2)nc1
XC50 (Plasmodium falciparum, 3D7): 1250 nM

CC(C)C[C@H](NC(=O)c1cc2ccccc2s1)C(=O)N[C@H]1CCN(Cc2ccc(I)c(OC3CCN(C)C3)c2)C1 (some centres undefined)
XC50 (Plasmodium falciparum, 3D7): 920 nM

c1cncc(-c2cc(N3CCc4ccccc4C3)nc(-c3ccncc3)n2)c1
XC50 (Plasmodium falciparum, 3D7): 40.9 nM

O=C(/C=C/c1ccc(C(F)(F)F)cc1)NCCCCCN1CCCN(C(=O)Nc2ccc(Cl)cc2)CC1
XC50 (Plasmodium falciparum, 3D7): 869 nM

COc1ccc2nccc([C@@H](O)CN3CCC(NCc4nc5c(cc4Cl)SCC(=O)N5)C(F)C3)c2c1 (some centres undefined)
XC50: 759 nM | XC50 (Plasmodium falciparum, 3D7): 505 nM

COCCNCc1cccc(-c2ccc3c(Nc4cc(O)c(Cl)cc4F)ccnc3c2)c1
XC50 (Plasmodium falciparum, 3D7): 114 nM

Cc1c(Cc2ccc(F)cc2)c(Cl)nc2nc(N)nc(N)c12
XC50 (Plasmodium falciparum, 3D7): 861 nM

O=C(NCCCN1CCOCC1)c1ccc(-c2cccc(NC(=O)c3ccc(Cl)c(Cl)c3)c2)cc1
XC50 (Plasmodium falciparum, 3D7): 683 nM

Nc1ccc2[nH]cc(C3CCN(CC4CCN(C(=O)/C=C/c5ccc(Cl)c(Cl)c5)CC4)CC3)c2n1
XC50 (Plasmodium falciparum, 3D7): 701 nM

Clc1ccc2c(NCc3ccccn3)ccnc2c1
XC50 (Plasmodium falciparum, 3D7): 664 nM

COc1cccc(C2CCN(CCN3CCC(NC(=O)c4ccc(-c5ccc(Cl)cc5)cc4)CC3)CC2)c1
XC50 (Plasmodium falciparum, 3D7): 1090 nM

COc1ccc(C2C(C(=O)OC3CCCCC3)=C(C)NC3=C2C(=O)CCC3)cc1Br (centres undefined)
XC50 (Plasmodium falciparum, 3D7): 579 nM

CC(C)C(=O)n1ncc2c3c(N)nc(N)nc3ccc21
XC50 (Plasmodium falciparum, 3D7): 1030 nM

Cc1nc(C)c(-c2ccc(Oc3ccc(OC(F)(F)F)cc3)cc2)c(OC(=O)N(CCNC(C)C)C(C)C)c1Br
XC50 (Plasmodium falciparum, 3D7): 171 nM

COc1cc2c(cc1OC)CC(NCCCCCCNCCc1ccc(Cl)cc1)CC2 (centres undefined)
XC50 (Plasmodium falciparum, 3D7): 738 nM

OC(CNCc1cccc(Oc2ccc(Cl)cc2)c1)c1cc(C(F)(F)F)cc(C(F)(F)F)c1 (centres undefined)
XC50 (Plasmodium falciparum, 3D7): 255 nM

COc1cc2ncnc(Nc3ccc(OCc4ccccc4Br)c(OC)c3)c2cc1OC
XC50 (Plasmodium falciparum, 3D7): 427 nM

COc1ccc(Cl)cc1N1CCN(CCCNC(=O)c2ccc(-c3nc4cc5ccccc5cc4[nH]3)c(F)c2)CC1
XC50 (Plasmodium falciparum, 3D7): 804 nM

Cc1nc(C)c(-c2ccc(Oc3ccc(Cl)cc3Cl)cc2)c(O)c1Br
XC50 (Plasmodium falciparum, 3D7): 297 nM

CCN1CCC(N(CCCCCCc2ccc(C(F)(F)F)cc2)C(=O)Cn2c(CCc3cccc(F)c3F)cc(=O)c3ccccc32)CC1
XC50 (Plasmodium falciparum, 3D7): 927 nM

COc1ccc2nccc([C@@H](O)CN3CCC(NCc4ccc5c(c4)OCCO5)CC3)c2c1
XC50 (Plasmodium falciparum, 3D7): 288 nM

CCc1cn2c3c(cc(C(=O)N[C@@H](Cc4ccccc4)[C@H](O)CNC4CCOCC4)cc13)N(C(C)C)S(=O)(=O)CC2
XC50 (Plasmodium falciparum, 3D7): 83.6 nM

COc1ccc(Cc2cnc3nc(N)nc(N)c3c2C)cc1
XC50 (Plasmodium falciparum, 3D7): 29.1 nM

CN1CCN(c2cc3c(cc2Cl)CCN3C(=O)Cc2ccc(Cl)c(NC(=O)Nc3cccc([N+](=O)[O-])c3)c2)CC1
XC50 (Plasmodium falciparum, 3D7): 718 nM

Cc1ccc(NC(=O)c2ccc(CN3CCCN(CC4CCCCC4)CC3)cc2)cc1F
XC50 (Plasmodium falciparum, 3D7): 290 nM

CC(=O)N/N=C/[C@H](CCc1ccccc1)NC(=O)[C@H](CC(C)C)NC(=O)c1ccc(F)cc1
XC50 (Plasmodium falciparum, 3D7): 692 nM

FC(F)(F)c1ccc2[nH]c(-c3cccc(-c4cccc(CNCC5CCCO5)c4)c3)nc2c1 (centres undefined)
XC50 (Plasmodium falciparum, 3D7): 422 nM

NC(=O)c1cccc(CNC(=O)NC[C@H]2CN(Cc3ccc(Cl)c(Cl)c3)CCO2)c1
XC50 (Plasmodium falciparum, 3D7): 586 nM

COC(=O)c1ccc(CC(C)NCC(O)c2cccc(C(F)(F)F)c2)c(OC)c1 (centres undefined)
XC50 (Plasmodium falciparum, 3D7): 804 nM

CC(C)(CNCc1ccc(F)c(F)c1)c1nc(-c2ccc(Cl)c(O)c2)c(-c2ccncc2)[nH]1
XC50 (Plasmodium falciparum, 3D7): 660 nM

Cc1nnc2c(NC(=O)NC3CCCC3)cc3cc(-c4ccc(CN5CCCCC5)cc4)ccc3n12
XC50 (Plasmodium falciparum, 3D7): 948 nM

CC(=O)Nc1ccc(CN2CCC(N(C)c3cc(NC(=O)c4cccc(F)c4)ccn3)CC2)cc1
XC50 (Plasmodium falciparum, 3D7): 1380 nM

O=[N+]([O-])c1ccc(/C=N/Nc2cc(-c3ccccc3)nc3ccccc23)o1
XC50 (Plasmodium falciparum, 3D7): 863 nM

Cc1nc(N)nc(N)c1OCc1cccc2c1ccc1ccccc12
XC50 (Plasmodium falciparum, 3D7): 98.8 nM

CC(=O)c1cccc(NC(=O)NC2CCN(c3ccnc(Nc4ccc(F)cc4)n3)C2)c1 (centres undefined)
XC50 (Plasmodium falciparum, 3D7): 650 nM

CCCCCCCCS(=O)(=O)NCCCC1CCN(CCCCCNC(=O)C=Cc2ccc(Cl)c(Cl)c2)CC1
XC50 (Plasmodium falciparum, 3D7): 858 nM

OC1CCCN(Cc2ccc(-c3ccc(-c4nc5cc(F)ccc5[nH]4)cc3)cc2)C1 (centres undefined)
XC50 (Plasmodium falciparum, 3D7): 854 nM

Cn1nccc1C(=O)NCCNCc1ccc(-c2ccc(-c3nc4cc(F)ccc4[nH]3)cc2)cc1
XC50 (Plasmodium falciparum, 3D7): 297 nM

CN(C(=O)Cc1ccc(Cl)c(Cl)c1)C1CCN(CCCCCNC(=O)/C=C/c2ccc(Cl)c(Cl)c2)CC1
XC50 (Plasmodium falciparum, 3D7): 739 nM

O=C(NCCCCN1CCC(C(c2ccccc2)c2ccccc2)CC1)c1ccc(NC(=O)c2ccc(Cl)cc2)cc1
XC50 (Plasmodium falciparum, 3D7): 769 nM

CC(C)(CN)c1nc(-c2ccc(Br)c(O)c2)c(-c2ccncc2)[nH]1
XC50 (Plasmodium falciparum, 3D7): 965 nM

CCN(CC)CCN(Cc1ccc(-c2ccc(C(F)(F)F)cc2)cc1)C(=O)Cn1cc(CCCc2cccc(F)c2F)c(=O)c2ccccc21
XC50 (Plasmodium falciparum, 3D7): 1060 nM

N=C1c2ccccc2CN1CC(=O)c1ccc(Cl)c(Cl)c1
XC50 (Plasmodium falciparum, 3D7): 728 nM

NC(=O)c1cccc(C(=O)Nc2cccc(-c3ccc(-c4nc5cc(C(F)(F)F)ccc5[nH]4)cc3)c2)c1
XC50 (Plasmodium falciparum, 3D7): 520 nM

CCCNC(=O)C1CCN(C(c2ccc(Cl)cc2)c2ccc(Cl)cc2)CC1
XC50 (Plasmodium falciparum, 3D7): 479 nM

Cc1ccccc1Cn1c(CN2CCC(C(=O)NC3CC3)CC2)cc2ccccc21
XC50 (Plasmodium falciparum, 3D7): 477 nM

CCCCCCNC[C@@H](O)[C@H](Cc1ccccc1)NC(=O)c1cc(NCC)cc(N2CCCCS2(=O)=O)c1
XC50 (Plasmodium falciparum, 3D7): 995 nM

COc1ccc2nc(C)cc(N/N=C/c3ccc([N+](=O)[O-])cc3)c2c1
XC50 (Plasmodium falciparum, 3D7): 695 nM

COc1ccc2nccc([C@@H](O)CN3CCC(NC(=O)c4ccc(CN5CCN(c6cccc(C)c6)CC5C)cc4)CC3)c2c1 (some centres undefined)
XC50 (Plasmodium falciparum, 3D7): 211 nM

Cc1cc(-c2cccc3c(C(=O)N4CCc5cc6nccc(N7CCCN(C)CC7)c6cc54)cccc23)cc(C)n1
XC50 (Plasmodium falciparum, 3D7): 437 nM

CN=C(S)NN=C(C)c1ccccn1
XC50 (Plasmodium falciparum, 3D7): 272 nM

NC(=O)c1sc(-n2cnc3ccc(OCC4CCNCC4)cc32)cc1OCc1ccccc1C(F)(F)F
XC50 (Plasmodium falciparum, 3D7): 753 nM

CCc1nc2nc(C)cc(Nc3ccc4c(c3)OCCO4)n2n1
XC50 (Plasmodium falciparum, 3D7): 1290 nM

CCN(CC)CCN(Cc1ccc(-c2ccc(C(F)(F)F)cc2)cc1)C(=O)Cn1c(CCc2cccc(F)c2F)nc(=O)c2ccc(C(F)(F)F)cc21
XC50 (Plasmodium falciparum, 3D7): 783 nM

Cn1ccnc1-c1nc2ccccn2c1NCC(=O)Nc1ccccc1N1CCCCC1
XC50 (Plasmodium falciparum, 3D7): 980 nM

COc1ccc(CCN(C)CCOc2ccc(NC(=O)c3cc(SC)cc4c(=O)c5ccccc5[nH]c34)cc2)cc1OC
XC50 (Plasmodium falciparum, 3D7): 1400 nM

O=C(/C=C/c1ccc(Cl)c(Cl)c1)Nc1cccc(CN2CCC(c3c[nH]c4ccc(O)cc34)CC2)c1
XC50 (Plasmodium falciparum, 3D7): 945 nM
